{
  "source": "patent US7163961B1",
  "about": "“Drugs, foods and oral compositions containing stilbene-type compounds” (Sunstar Inc., priority 1999, dated 2007)",
  "key": {"[1]": {"system": "ovariectomized female stroke-prone spontaneously hypertensive rats (SHRSP/izm)", "assay": "Preventive action on decrease in bone weight in ovariectomized rats (climacteric conditions)", "assay_type": "in vivo, rat", "conditions": "left thigh bone, resveratrol in feed about 20 mg/kg per day, 8 weeks, mean ± SD, n = 5", "experimental": "Rats subjected to climacteric conditions were studied to estimate the effect of the composition of the invention in preventing a decrease in bone weight. Specifically, 18-week-old female stroke-prone spontaneously hypertensive rats (SHRSP/izm) were ovariectomized and subjected to climacteric conditions. Then, the rats were grouped into a resveratrol group to which resveratrol was administered and a control group. Also provided was a sham group of rats which received a sham operation, that is, a laparotomy without ovary removal. The rats were fed ad libitum. The control group and sham group were fed with “Powdery Mixed Feed SP” (manufactured by Funahashi Farm), and the resveratrol group was fed with the same feed with resveratrol added thereto. The amount of added resveratrol administered was adjusted to about 20 mg/kg per day. Each group had 5 rats that were bred for 8 weeks. After the breeding period, the rats were slaughtered for dissection. The left thigh bone was removed from each group's rats. The thigh bones were tested for their bone density and measured for their breaking load and breaking energy values using “EZ-test” (manufactured by Shimadzu Corporation), whereby their bone strength was evaluated."}, "[2]": {"system": "ovariectomized female stroke-prone spontaneously hypertensive rats (SHRSP/izm)", "assay": "Preventive action on hypertension, cardiac hypertrophy and cerebral apoplexy in ovariectomized rats", "assay_type": "in vivo, rat", "conditions": "feed with 1.5 g/kg of resveratrol added, 8 weeks", "text": "Rats subjected to climacteric conditions were studied to estimate the effect of the composition of the invention in preventing a rise in blood pressure, cardiac hypertrophy and cerebral apoplexy. Specifically, 18-week-old female stroke-prone spontaneously hypertensive rats (SHRSP/izm) were ovariectomized and subjected to climacteric conditions. Then, the rats were grouped into a resveratrol group and a control group. Also provided a sham group of rats which received a sham operation, that is, a laparotomy without ovary removal. The rats were fed ad libitum. The control group and sham group were fed with “Powdery Mixed Feed SP” (manufactured by Funahashi Farm), and the resveratrol group was fed with the same mixed feed with 1.5 g/kg of resveratrol added. Five rats in each group were bred for 8 weeks. The blood pressure of the rats was measured every week without anesthesia by means of a rat caudal artery sphygmomanometer. After the breeding period, the rats were slaughtered for dissection."}, "[3]": {"system": "male stroke-prone spontaneously hypertensive rats (SHRSP/izm)", "assay": "Preventive action on hypertension and cardiac hypertrophy in male rats", "assay_type": "in vivo, rat", "conditions": "8 weeks", "experimental": "The ability of the composition of the invention to prevent a rise in blood pressure and cardiac hypertrophy was researched using male rats. Firstly, 5- to 6-week-old male stroke-prone spontaneously hypertensive rats (SHRSP/izm) were grouped into a resveratrol group and a control group. The rats were fed ad libitum with “Powdery Mixed Feed SP” (manufacture by Funahashi Farm). The resveratrol group was administered resveratrol in an amount of 5 mg/kg per day. The administration was conducted by the intended clinical route, i.e., orally. The rats were force-fed orally once a day with a Teflon gastric tube. The dose was adjusted to 1 ml per 100 g of the body weight using a water for injection listed in The Japanese Pharmacopoeia, calculated according to the measured body weight of the individual rats. The control group was given the same amount of the water for injection listed in the Japanese Pharmacopoeia only. Each group had 5 rats that were bred for 8 weeks. The blood pressure of the rats was measured every 2 weeks without anesthesia by means of a rat caudal artery sphygmomanometer. After the breeding period, the rats were slaughtered for dissection and the ratio of the weight of the heart to the total body weight of the rats was measured."}, "osteoblastic cells": {"system": "osteoblastic cells", "conditions": "cultured osteoblastic cell strain; Biochem. Biophys. Res. Commun. 253, 859–863 (1998); cited from earlier work"}},
  "data": [
    {"smiles": "Oc1ccc(C=Cc2cc(O)cc(O)c2)cc1", "note": "[Resveratrol, 3,5,4′-stilbenetriol]", "values": [
      {"measurement": "Breaking energy", "setting": "[1]; EZ-test", "result": "0.0523 ± 0.0073", "unit": "J"},
      {"measurement": "Breaking load", "setting": "[1]; EZ-test", "result": "99.46 ± 9.57", "unit": "N"},
      {"measurement": "Bone density", "setting": "[1]", "result": "1.479 ± 0.281", "unit": "g/mL"},
      {"measurement": "Blood pressure compared with sham group", "setting": "[2]", "result": "about the same as that of the sham group"},
      {"measurement": "Cerebral infarction in brain tissue", "setting": "[2]; 5 rats, control group 4 rats out of 5", "result": "not found in any rats"},
      {"measurement": "Inhibition of rise in blood pressure (FIG. 1)", "setting": "[2]; caudal artery sphygmomanometer, weekly, without anesthesia", "result": "significantly higher action to inhibit a rise in the blood pressure than the control group"},
      {"measurement": "Brain weight per body weight", "setting": "[2]; mean ± SD, n = 5", "result": "0.803 ± 0.02", "unit": "%"},
      {"measurement": "Heart weight per body weight", "setting": "[2]; mean ± SD, n = 5", "result": "0.424 ± 0.023", "unit": "%"},
      {"measurement": "Heart weight per body weight", "setting": "[3]; 5 mg/kg per day orally by gastric tube, mean ± SD, n = 5", "result": "0.557 ± 0.024", "unit": "%"},
      {"measurement": "Inhibition of rise in blood pressure (FIG. 2)", "setting": "[3]; 5 mg/kg per day orally, caudal artery sphygmomanometer, every 2 weeks", "result": "significantly higher action to inhibit a rise in the blood pressure"},
      {"measurement": "Activity of alkaline phosphatase", "setting": "osteoblastic cells", "result": "accelerates the activity of alkaline phosphatase"},
      {"measurement": "Activity of prolyl hydroxylase", "setting": "osteoblastic cells", "result": "enhances the activity of prolyl hydroxylase"},
      {"measurement": "Proliferation of osteoblastic cells", "setting": "osteoblastic cells", "result": "accelerates the proliferation of osteoblastic cells"}
    ]}
  ]
}
